Data reported in ChEMBL document CHEMBL3817830, “Discovery of a novel binding pocket for CYP 2C9 inhibitors: crystallography, pharmacophore modelling and inhibitor SAR” (Medchemcomm, 2016).

What was measured:
Progesterone receptor = target: T1, Progesterone receptor (Homo sapiens, UniProt P06401); experiment: Antagonist activity at PR (unknown origin)
T1 sequence (P06401 whole entry): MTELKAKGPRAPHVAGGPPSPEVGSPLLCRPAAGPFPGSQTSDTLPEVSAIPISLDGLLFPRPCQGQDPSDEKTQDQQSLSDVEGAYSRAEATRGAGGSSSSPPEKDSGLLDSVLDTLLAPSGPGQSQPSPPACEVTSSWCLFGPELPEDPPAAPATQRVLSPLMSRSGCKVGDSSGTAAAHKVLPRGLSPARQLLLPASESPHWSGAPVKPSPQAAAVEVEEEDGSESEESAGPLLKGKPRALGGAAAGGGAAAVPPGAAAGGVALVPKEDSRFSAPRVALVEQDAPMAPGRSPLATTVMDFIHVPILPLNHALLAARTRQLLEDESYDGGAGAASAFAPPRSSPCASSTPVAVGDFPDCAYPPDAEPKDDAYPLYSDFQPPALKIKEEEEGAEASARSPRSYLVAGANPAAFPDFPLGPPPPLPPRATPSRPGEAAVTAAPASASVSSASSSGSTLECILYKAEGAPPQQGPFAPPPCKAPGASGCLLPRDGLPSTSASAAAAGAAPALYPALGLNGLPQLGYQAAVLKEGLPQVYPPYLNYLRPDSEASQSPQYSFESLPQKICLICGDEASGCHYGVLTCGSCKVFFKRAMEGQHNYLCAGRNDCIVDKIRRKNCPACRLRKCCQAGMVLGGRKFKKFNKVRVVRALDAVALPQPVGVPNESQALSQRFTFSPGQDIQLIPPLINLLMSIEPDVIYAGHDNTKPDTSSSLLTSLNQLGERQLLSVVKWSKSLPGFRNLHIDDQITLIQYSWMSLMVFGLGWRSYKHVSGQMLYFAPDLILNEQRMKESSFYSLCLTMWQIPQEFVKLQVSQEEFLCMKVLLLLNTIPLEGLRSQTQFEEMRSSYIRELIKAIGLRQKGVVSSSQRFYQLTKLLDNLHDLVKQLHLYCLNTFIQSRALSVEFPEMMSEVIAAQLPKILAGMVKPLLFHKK

[1] = Dissociation constant, pKa of the compound; assay type: physicochemical
CYP2C9 = CYP2C9 (Homo sapiens, UniProt P11712); experiment: Inhibition of CYP2C9 (unknown origin) at 3 uM; assay type: ADME
Chain of CYP2C9 (P11712 whole entry): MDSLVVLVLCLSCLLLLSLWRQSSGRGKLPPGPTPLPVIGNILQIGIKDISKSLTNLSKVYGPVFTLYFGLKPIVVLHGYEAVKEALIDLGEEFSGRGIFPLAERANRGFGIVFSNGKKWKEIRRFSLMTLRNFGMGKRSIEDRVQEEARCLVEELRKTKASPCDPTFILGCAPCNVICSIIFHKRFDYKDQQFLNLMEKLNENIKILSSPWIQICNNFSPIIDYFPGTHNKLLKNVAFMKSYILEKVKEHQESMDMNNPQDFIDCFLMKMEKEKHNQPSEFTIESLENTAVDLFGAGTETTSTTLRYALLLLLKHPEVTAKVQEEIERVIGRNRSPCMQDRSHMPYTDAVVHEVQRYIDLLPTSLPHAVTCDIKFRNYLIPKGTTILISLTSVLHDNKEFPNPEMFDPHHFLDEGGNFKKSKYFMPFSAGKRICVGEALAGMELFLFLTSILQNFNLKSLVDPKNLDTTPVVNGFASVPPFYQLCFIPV

COc1cc(NS(C)(=O)=O)cc(OC)c1Oc1ccc(C#N)c(Cl)c1
IC50 (Progesterone receptor): 26 nM | pKa [1]: 8.5 | inhibition at 3 µM (CYP2C9): 9%

COc1cc(NS(=O)(=O)C(F)(F)F)cc(OC)c1Oc1ccc(C#N)c(Cl)c1
IC50 (Progesterone receptor): 175 nM | pKa [1]: 4.5 | inhibition at 3 µM (CYP2C9): 95%

CS(=O)(=O)N[C@H]1CC[C@H](Oc2ccc(C#N)c(Cl)c2)CC1
IC50 (Progesterone receptor): 107 nM | inhibition at 3 µM (CYP2C9): 0%

N#Cc1ccc(O[C@H]2CC[C@H](NS(=O)(=O)C(F)(F)F)CC2)cc1Cl
IC50 (Progesterone receptor): 43 nM | inhibition at 3 µM (CYP2C9): 77%
